Experimental data: PubChem BioAssay (NCI)
“And” between values parts separate entries of the source, which are not always exact repeats. Identical values can stand only once.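 Briefly, cells in 96-well plates were exposed to five compound concentrations for 48 h, and endpoints were estimated by linear interpolation. Here, GI50 denotes the concentration required for 50% inhibition of growth. At the TGI there is no net growth.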

How the values were obtained:
Assay in all cases: growth of human tumour cells (NCI), 48 h
EKVX NSCLC = system: EKVX NSCLC
HT29 colon = system: HT29 colon
COLO 205 colon = system: COLO 205 colon
UACC-257 melanoma = system: UACC-257 melanoma
SK-MEL-5 melanoma = system: SK-MEL-5 melanoma
HOP-92 NSCLC = system: HOP-92 NSCLC
NCI/ADR-RES ovarian = system: NCI/ADR-RES ovarian
SNB-19 CNS = system: SNB-19 CNS
SN12C renal = system: SN12C renal
M14 melanoma = system: M14 melanoma
SNB-75 CNS = system: SNB-75 CNS
UACC-62 melanoma = system: UACC-62 melanoma
KM12 colon = system: KM12 colon
KM20L2 colon = system: KM20L2 colon
MDA-MB-435 = system: MDA-MB-435
LXFL 529 NSCLC = system: LXFL 529 NSCLC

| SMILES | TGI (EKVX NSCLC) | TGI (HT29 colon) | TGI (COLO 205 colon) | TGI (UACC-257 melanoma) | TGI (SK-MEL-5 melanoma) | TGI (HOP-92 NSCLC) | TGI (NCI/ADR-RES ovarian) | TGI (SNB-19 CNS) | TGI (SN12C renal) | TGI (M14 melanoma) | TGI (SNB-75 CNS) | GI50 (UACC-62 melanoma) | TGI (UACC-62 melanoma) | GI50 (EKVX NSCLC) | TGI (KM12 colon) | GI50 (KM20L2 colon) | TGI (KM20L2 colon) | TGI (MDA-MB-435) | GI50 (LXFL 529 NSCLC) | TGI (LXFL 529 NSCLC) |
| --- | --- | --- | --- | --- | --- | --- | --- | --- | --- | --- | --- | --- | --- | --- | --- | --- | --- | --- | --- | --- |
| COc1cccc(C2c3cc4c(cc3OC(N3CCOCC3)C2C)OCO4)c1 (stereo unspecified) | 87.7 µM | 25 µM | 29.8 µM | > 100 µM | 15.6 µM | 85.3 µM | > 100 µM | > 100 µM | > 100 µM | 71 µM | > 100 µM |  |  |  |  |  |  |  |  |  |
| O=C1/C(=C/c2ccc(Cl)c(Cl)c2)CN(C(=O)CCN2CCOCC2)C/C1=C\c1ccc(Cl)c(Cl)c1 | 4.35 µM and 6.41 µM and 3.09 µM |  |  |  |  |  |  |  |  |  |  | 1.92 µM | 3.27 µM and 4.9 µM | 1.37 µM | 0.137 µM and 1.27 µM and 0.326 µM | 1.82 µM | 2.79 µM and 4.01 µM | 0.0309 µM | 0.499 µM | 2.99 µM and 1.63 µM |
